Assay results from patent US5705687A, “Neurotropic drug and method for preparation of same” (priority 1993, dated 1998).
“And” between values parts separate entries of the source, which are not always exact repeats. Identical values can stand only once. Counter-ions that a name gives are not always drawn.

Assays:
mice [1] = experiment: Histotoxic hypoxia (sodium nitroprussiate), lifespan; type: in vivo; details: for Lifespan, % effect: Na-nitro-prussiate alone = 100
Experimental: (§1) The antihypoxic properties of the new compounds were tested in the models of hypoxic normobaric, hemic and histotoxic hypoxia. The hypoxic (hypercapnic) normobaric hypoxia was induced by placing the mice in hermetically sealed transparent boxes, subdivided into compartments, 80 cm^3 each. The animals were observed until all respiratory movements ceased. The hemic hypoxia was induced by the intraperitoneal administration of sodium nitrite in a dose of 400 mg/kg. The hystotoxic hypoxia was induced by the intraperitoneal administration of sodium nitroprussiate, in a dose of a 20 mg/kg dosage.

mice [2] = experiment: Soporific action of hexobarbital; details: for Duration of sleep, % effect / Lateral position, % effect: hexobarbital alone = 100
mice [3] = experiment: Hypoxic (hypercapnic) normobaric hypoxia, lifespan; type: in vivo; details: for Average lifespan: control 411 ± 11.9, P < 0.001; for Lifespan, % effect: control = 100
Experimental: as §1

mice [4] = experiment: Spontaneous motor activity (SMA), 40-channel automatic motor meter; details: for Average SMA, M ± m: control 632.8 ± 35.2; for Relative change in activity (%): control = 100
mice [5] = experiment: Conditioned reaction of passive avoidance (CPRA), amnesia by electric shock; type: in vivo; details: for Latent period after training: 24 h, amnesia control 31.1; for % effect (latent period): control + amnesia 91.2, w/o amnesia 288.1; for Δt, increase in latent period (t ± m, sec): amnesia control -3 ± 6
Excerpt: The effect produced by the new substance on the processes of the central nervous system was examined on the model of one-time training of mice, of conditioned reaction of passive avoidance (CPRA), where the amnesic effect was produced by electric shock. During the tests, a two-section chamber was used to condition a certain reflex to the lit and darkened sections. First, for two minutes, the amount of time was registered, that a mouse spent in the lit section before entering the darkened section. Then, while in the darkened section, the animal would receive a single electric shock through the electrode floor (training). The training was immediately followed by an electric shock (50 Hz, 0.2 see). […] The substance was intraperitoneally administered 40 min. prior to the start of the training, the control group received a physiological solution. […] The anti-amnesic properties of the new compound are represented by an increase in the latent period before and after the training. (Δt)

mice [6] = experiment: Soporific action of barbital sodium; details: for Duration of sleep, % effect / Lateral position, % effect: barbital sodium alone = 100; for increase of sleep duration over control group: barbital sodium
[7] = Solubility and hygroscopicity; type: physicochemical; details: powder
mice [8] = experiment: Acute toxicity in mice (Litchfield-Wilcockson); type: in vivo, white crossbred mice; details: i.p., single dose
[9] = Acute toxicity in mice (Litchfield-Wilcockson); type: in vivo, white crossbred mice; details: mouse, in vivo
mice [10] = experiment: Hemic hypoxia (sodium nitrite), lifespan; type: in vivo; details: for Lifespan, % effect: Na-nitrite alone = 100
Experimental: as §1

[11] = 1 mg/kg i.p. + hexobarbital 100 mg/kg

CC(C)(CO)C(=O)C(=O)NCCCC(=O)O [KPA-Ca, calcium salt of ketopantoyl aminobutyrate]
Average lifespan (mice [1]; 10 mg/kg + Na-nitro-prussiate 20 mg/kg): 798 ± 38 s
Lifespan, % effect (mice [1]; 10 mg/kg): 104.3%
Average lifespan (mice [1]; 25 mg/kg + Na-nitro-prussiate 20 mg/kg): 855 ± 43.2 s
Lifespan, % effect (mice [1]; 25 mg/kg): 111.8%
increase in lifespan (mice [1]; 50 mg/kg): 21.6%
Average lifespan (mice [1]; 50 mg/kg + Na-nitro-prussiate 20 mg/kg, P < 0.05): 930 ± 55.1 s
Lifespan, % effect (mice [1]; 50 mg/kg): 121.6%
increase in lifespan (mice [1]; 100 mg/kg): 38.4%
Average lifespan (mice [1]; 100 mg/kg + Na-nitro-prussiate 20 mg/kg, P < 0.01): 1059 ± 64 s
Lifespan, % effect (mice [1]; 100 mg/kg): 138.4%
Duration of sleep (mice [2]; [11]): 44.6 ± 5.2 min
Lateral position (mice [2]; [11]): 2.5 ± 0.17 min
Duration of sleep, % effect (mice [2]; 1 mg/kg): 96.3%
Lateral position, % effect (mice [2]; 1 mg/kg): 104.2%
Lateral position (mice [2]; 10 mg/kg i.p. + hexobarbital 100 mg/kg): 2.4 ± 0.16 min
Duration of sleep (mice [2]; 10 mg/kg i.p. + hexobarbital 100 mg/kg, P < 0.01): 67.2 ± 4.3 min
Duration of sleep, % effect (mice [2]; 10 mg/kg): 145.1%
Lateral position, % effect (mice [2]; 10 mg/kg): 100%
Lateral position (mice [2]; 25 mg/kg i.p. + hexobarbital 100 mg/kg): 2.5 ± 0.2 min
Duration of sleep (mice [2]; 25 mg/kg i.p. + hexobarbital 100 mg/kg, P < 0.001): 60.6 ± 1.9 min
Duration of sleep, % effect (mice [2]; 25 mg/kg): 130.9%
Lateral position, % effect (mice [2]; 25 mg/kg): 104.2%
Lateral position (mice [2]; 50 mg/kg i.p. + hexobarbital 100 mg/kg): 2.3 ± 0.15 min
Duration of sleep (mice [2]; 50 mg/kg i.p. + hexobarbital 100 mg/kg, P < 0.001): 70.7 ± 3.1 min
increase of sleep duration (mice [2]; 50 mg/kg, hexobarbital): 52.7%
Duration of sleep, % effect (mice [2]; 50 mg/kg): 152.7%
Lateral position, % effect (mice [2]; 50 mg/kg): 95.8%
Lateral position (mice [2]; 100 mg/kg i.p. + hexobarbital 100 mg/kg): 2.4 ± 0.22 min
Duration of sleep (mice [2]; 100 mg/kg i.p. + hexobarbital 100 mg/kg, P < 0.001): 93.7 ± 4.3 min
increase of sleep duration over control group (maximum effect) (mice [2]; 100 mg/kg, hexobarbital): 102.4%
Duration of sleep, % effect (mice [2]; 100 mg/kg): 202.4%
Lateral position, % effect (mice [2]; 100 mg/kg): 100%
Lateral position (mice [2]; 150 mg/kg i.p. + hexobarbital 100 mg/kg): 2.5 ± 0.34 min
Duration of sleep (mice [2]; 150 mg/kg i.p. + hexobarbital 100 mg/kg, P < 0.001): 86.4 ± 4 min
Duration of sleep, % effect (mice [2]; 150 mg/kg): 186.6%
Lateral position, % effect (mice [2]; 150 mg/kg): 104.2%
change in effect on raising the dose (mice [2]; above 100 mg/kg): not noticeable change in the effect
effect on the lateral position (mice [2]; hexobarbital): no effect on the lateral position
Average lifespan (mice [3]; 10 mg/kg): 558 ± 21.5 s
Lifespan, % effect (mice [3]; 10 mg/kg): 135.8%
Average lifespan (mice [3]; 25 mg/kg): 570 ± 17.3 s
Lifespan, % effect (mice [3]; 25 mg/kg): 138.7%
Average lifespan (mice [3]; 50 mg/kg): 588 ± 22.4 s
Lifespan, % effect (mice [3]; 50 mg/kg): 143.1%
Average lifespan (mice [3]; 100 mg/kg): 600 ± 30.7 s
Lifespan, % effect (mice [3]; 100 mg/kg): 146%
extension of lifespan compared to control group (mice [3]; 10 to 100 mg/kg): 35.8-46%
decrease in number of runs in the motor meter (the same result) (mice [4]; 10 mg/kg): 30%
dose for 30% decrease in runs, compared with pantogam dose (mice [4]; 10 mg/kg KPA-Ca vs 500 mg/kg pantogam): 50 times less
Average SMA, M ± m (mice [4]; 10 mg/kg i.p., 60 min before, number of runs): 482.8 ± 101.8
Relative change in activity (%) (mice [4]; 10 mg/kg i.p.): 76.3%
Average SMA, M ± m (mice [4]; 25 mg/kg i.p., P < 0.01): 369.1 ± 68.7
Relative change in activity (%) (mice [4]; 25 mg/kg i.p.): 58.3%
Average SMA, M ± m (mice [4]; 50 mg/kg i.p., P < 0.01): 338.9 ± 74.5
Relative change in activity (%) (mice [4]; 50 mg/kg i.p.): 53.6%
Average SMA, M ± m (mice [4]; 100 mg/kg i.p., P < 0.01): 270.4 ± 75.3
Relative change in activity (%) (mice [4]; 100 mg/kg i.p.): 42.7%
decrease in motor activity (the same effect) (mice [4]; 150 mg/kg): 70%
Average SMA, M ± m (mice [4]; 150 mg/kg i.p., P < 0.001): 190.6 ± 28.2
Relative change in activity (%) (mice [4]; 150 mg/kg i.p.): 30.1%
dose of greatest effect on motor activity (mice [4]; SMA test, mice): 150 mg/kg
effect on motor activity (in words) (mice [4]; SMA test, mice): decreases the motor activity
Latent period before training (mice [5]; 10 mg/kg i.p., 40 min before training): 27.1 s
Latent period after training (mice [5]; 10 mg/kg i.p.): 90.3 s
% effect (latent period) (mice [5]; 10 mg/kg i.p.): 334.4%
Δt, increase in latent period (t ± m, sec) (mice [5]; 10 mg/kg i.p., spread 12.6, P < 0.01): 63.2 s
Latent period before training (mice [5]; 25 mg/kg i.p.): 31.4 s
Latent period after training (mice [5]; 25 mg/kg i.p.): 102.4 s
Δt, increase in latent period (t ± m, sec) (mice [5]; 25 mg/kg i.p., P < 0.001): 71 ± 9 s
% effect (latent period) (mice [5]; 25 mg/kg i.p.): 396.1%
Latent period before training (mice [5]; 50 mg/kg i.p.): 30.6 s
Latent period after training (mice [5]; 50 mg/kg i.p.): 77.8 s
% effect (latent period) (mice [5]; 50 mg/kg i.p.): 254.2%
Δt, increase in latent period (t ± m, sec) (mice [5]; 50 mg/kg i.p., spread 13.3, P < 0.01): 47.2 s
Latent period before training (mice [5]; 100 mg/kg i.p.): 31.8 s
Latent period after training (mice [5]; 100 mg/kg i.p.): 82.8 s
Δt, increase in latent period (t ± m, sec) (mice [5]; 100 mg/kg i.p., P < 0.01): 51 ± 14.1 s
% effect (latent period) (mice [5]; 100 mg/kg i.p.): 260.4%
anti-amnesic effect (in words) (mice [5]; electric shock amnesia): counteracted the amnesic effect of the electric shock
Duration of sleep, % effect (mice [6]; 1 mg/kg): 99.9%
Lateral position, % effect (mice [6]; 1 mg/kg): 69.6%
Duration of sleep, % effect (mice [6]; 10 mg/kg): 122.7%
Lateral position, % effect (mice [6]; 10 mg/kg): 61.4%
increase of sleep duration over control group (mice [6]; 25 mg/kg): 126.5%
Duration of sleep, % effect (mice [6]; 25 mg/kg): 226.5%
Lateral position, % effect (mice [6]; 25 mg/kg): 67.3%
increase of sleep duration over control group (mice [6]; 50 mg/kg): 95.1% and 95%
Duration of sleep, % effect (mice [6]; 50 mg/kg): 195.1%
Lateral position, % effect (mice [6]; 50 mg/kg): 68.7%
Duration of sleep, % effect (mice [6]; 100 mg/kg): 229.3%
Lateral position, % effect (mice [6]; 100 mg/kg): 66.7%
increase of sleep duration over control group (mice [6]): 129.3%
hygroscopicity [7]: hygroscopic
LD10 (acute toxicity) (mice [8]): 2234.3 ± 60.7 mg/kg
LD50 ([9]; intravenous, read-out: DL50 (the source's name)): 1040 ± 13.5 mg/kg
MTD ([9]; ip, read-out: maximum tolerance level): 1500 mg/kg
Average lifespan (mice [10]; 10 mg/kg + Na-nitrite 400 mg/kg): 777 ± 30.1 s
Lifespan, % effect (mice [10]; 10 mg/kg): 98.3%
Average lifespan (mice [10]; 25 mg/kg + Na-nitrite 400 mg/kg): 780 ± 30.3 s
Lifespan, % effect (mice [10]; 25 mg/kg): 98.7%
Average lifespan (mice [10]; 50 mg/kg + Na-nitrite 400 mg/kg): 819 ± 41 s
Lifespan, % effect (mice [10]; 50 mg/kg): 103.6%
increase in effect (lifespan) (mice [10]; 100 mg/kg): 19.9%
Average lifespan (mice [10]; 100 mg/kg + Na-nitrite 400 mg/kg, P < 0.01): 948 ± 40.3 s
Lifespan, % effect (mice [10]; 100 mg/kg): 119.9%
activity in hemic hypoxia (in words) (mice [10]; 10 to 100 mg/kg): little activity
